Test results reported in paper PMC10901353, “Identification of a potent and selective LAPTc inhibitor by RapidFire-Mass Spectrometry, with antichagasic activity” (PLOS Neglected Tropical Diseases, 2024).
“And” between values parts separate entries of the source, which are not always exact repeats. Identical values can stand only once. “Also recorded” adds a separate entry of the source. Like-named read-outs stand apart in the source and are kept apart here.

Key:
[1] = target: T1, LAPTc (acidic M17 leucyl-aminopeptidase from T. cruzi) (Trypanosoma cruzi, UniProt V5BWE3); assay: High-throughput single point screening for LAPTc inhibitors by RapidFire-MS; format: biochemical; details: read-out: Percent Inhibition
T1 sequence (V5BWE3 entry or part of it): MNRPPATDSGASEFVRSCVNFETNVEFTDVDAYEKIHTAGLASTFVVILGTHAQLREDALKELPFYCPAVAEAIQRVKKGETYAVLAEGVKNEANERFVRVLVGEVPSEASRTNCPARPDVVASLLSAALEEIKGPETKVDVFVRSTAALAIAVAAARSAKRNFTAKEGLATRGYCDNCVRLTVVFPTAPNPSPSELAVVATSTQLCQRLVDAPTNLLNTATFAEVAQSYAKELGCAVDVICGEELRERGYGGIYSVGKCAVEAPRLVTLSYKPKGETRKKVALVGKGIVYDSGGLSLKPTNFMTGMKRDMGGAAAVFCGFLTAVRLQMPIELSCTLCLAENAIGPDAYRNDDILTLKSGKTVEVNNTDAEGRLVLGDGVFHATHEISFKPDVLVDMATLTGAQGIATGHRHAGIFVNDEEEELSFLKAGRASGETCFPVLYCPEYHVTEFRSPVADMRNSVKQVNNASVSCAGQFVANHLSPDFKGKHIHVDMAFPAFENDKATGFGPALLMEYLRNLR
Protocol: (§1) This assay was previously described. The assay was performed in 384-well clear F-bottom polypropylene plates with a final reaction volume of 15 μL. The reaction mixture contained 7.5 μL LAPTc in 50 mM Tris-HCl, pH 7.5, 0.005% NP-40 and 7.5 μL LSTVIVR peptide substrate (Cambridge Research Biochemicals, Billingham, UK) in the same buffer was added to start the reaction. The reaction was performed at room temperature for 40 min and then stopped with 85 μL 1% formic acid containing 0.15 mg/mL STVIVR* internal standard (Cambridge Research Biochemicals, Billingham, UK).
Single point screening of a library of 3329 compounds was performed in 384-well clear plates (Greiner 781101) at room temperature. Test compounds (45 nL in DMSO) were transferred to assay plates by an ECHO 550 acoustic dispenser (Labcyte). LAPTc was tested at 3 nM with 150 μM (approximately the value of the apparent Michaelis-Menten constant -appKM- [16]) LSTVIVR peptide substrate in a 40 min reaction. Before addition of substrate, LAPTc was preincubated with 45 nL compounds or DMSO for 15 min. Compounds, dissolved in DMSO, were tested at 30 μM. Controls without compound (the same volume of DMSO, 0% inhibitory effect) and without enzyme and compound (100% inhibitory effect) were prepared. The experiment was performed without replicates. The remaining experimental conditions were maintained as previously described. Data were processed and analysed through ActivityBase XE (IDBS). The selection criterion for hits in this single point screen was percent inhibition larger than the mean plus three standard deviations. All primary screening data are available in ChEMBL (see Data Availability statement).

[2] = target: T1, LAPTc (acidic M17 leucyl-aminopeptidase from T. cruzi); assay: Dose-response studies for LAPTc inhibition by RapidFire-MS; format: biochemical
Protocol: as §1
To generate half-maximum inhibitory concentration (IC50) data for LAPTc, 10-point dose-response curves with 100 μM as highest concentration and 1:2 dilution in DMSO (0.195–100 μM range) were prepared in 384 well plates. All other experimental conditions were as described above. All IC50 curve fitting was performed by four-parameter logistic dose-response curve fit using ActivityBase XE (IDBS). At least three replicates were generated for each hit compound.

[3] = target: LAPTc (Trypanosoma cruzi, UniProt V5BWE3); assay: Mode of inhibition studies by RapidFire-MS; format: biochemical
Chain of LAPTc (V5BWE3 entry or part of it): as above
Protocol: Five concentrations of the LSTVIVR peptide substrate (100–1600 μM range) were tested in the presence of 3 nM LAPTc for 40 min. For each substrate concentration, compound 4 was tested at 0, 0.1 and 0.2 μM. For each substrate and compound 4 concentration, a negative control without enzyme was used. Before addition of substrate, LAPTc was preincubated with compound 4 for 15 min. Other experimental conditions were as previously described. Ki was calculated by fitting the Morrison equation to the experimental data. Binding energy (ΔGb) was calculated from Ki according to the equation ΔG = -RTlnKi.

[4] = target: T2, human LAP3 (Homo sapiens, UniProt P28838); assay: Dose-response studies for human LAP3 inhibition by RapidFire-MS; format: biochemical
T2 construct: purchased Assay Genie, Ireland
T2 sequence (P28838 whole entry): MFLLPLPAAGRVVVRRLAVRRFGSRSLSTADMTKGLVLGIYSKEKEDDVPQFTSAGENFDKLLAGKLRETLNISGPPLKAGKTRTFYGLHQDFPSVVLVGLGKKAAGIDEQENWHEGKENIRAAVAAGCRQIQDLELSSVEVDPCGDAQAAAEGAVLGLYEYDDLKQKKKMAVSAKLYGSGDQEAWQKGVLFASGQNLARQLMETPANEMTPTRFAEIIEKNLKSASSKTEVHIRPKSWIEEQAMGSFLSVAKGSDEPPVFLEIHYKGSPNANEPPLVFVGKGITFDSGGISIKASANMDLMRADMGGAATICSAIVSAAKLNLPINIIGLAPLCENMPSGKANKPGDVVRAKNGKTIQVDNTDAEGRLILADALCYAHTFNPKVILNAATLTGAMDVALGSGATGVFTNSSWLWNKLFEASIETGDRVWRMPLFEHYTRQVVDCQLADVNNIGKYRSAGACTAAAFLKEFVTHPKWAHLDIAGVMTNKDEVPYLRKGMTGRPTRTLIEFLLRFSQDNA
Protocol: Human LAP3 enzyme (Assay Genie, Ireland) was tested at 150 nM with 600 μM (~1 appKM) LSTVIVR peptide substrate and 1 mM ZnCl2 in a 180 min reaction. All other experimental conditions were as described above for dose-response assays with LAPTc.

[5] = system: intracellular T. cruzi amastigotes; assay: T. cruzi intracellular assay (high-content imaging, infected Vero cells); format: cell-based, Trypanosoma cruzi; parameters: Max Effect (T. cruzi): unit not given here
Protocol: T. cruzi parasite, TcI strain Silvio X10/7 subclone A1 [34] was maintained in culture as previously described. Parasites were maintained as amastigotes by passaging on a weekly basis in Vero cells. Culture maintenance infections were carried out at an MOI (multiplicity of infection) of 1.5.
(§2) This assay was performed as described with the only modification that treatment was 96 h instead of 72 h. Briefly, Vero cells were infected overnight with tissue culture derived T. cruzi trypomastigotes in T225 tissue culture flasks (MOI 5). Any remaining free trypomastigotes were washed away with serum free MEM and the infected Vero cells were harvested by trypsinisation. Compounds (250 nL in DMSO) were dispensed using LabCyte ECHO (Beckman Coulter Life Sciences, USA) into each well of Corning black flat bottomed 384-well plates (Corning, USA). […] The infected Vero cells were then plated into the plates containing the compounds, at 4,000 cells per well in MEM media with 1% FCS. After 96 h incubation at 37°C in presence of 5% CO2, the plates were fixed with 4% formaldehyde for 20 min at room temperature and stained with 5 μg/mL Hoechst 33342. The plates were imaged on a Perkin Elmer Operetta high-content imaging system using a 20× objective. Images were analyzed using the Columbus system (Perkin Elmer). The algorithm first identified the Vero nuclei followed by demarcation of the cytoplasm and identification of intracellular amastigotes. This algorithm reported percent infected Vero cell and total number of Vero cells. All potency determinations were carried out in at least three independent replicates and are reported as pEC50 +/- standard deviation. pEC50 = -log(EC50[M]).

[6] = Cytotoxicity against infected Vero host cells in T. cruzi intracellular assay; format: cell-based, African green monkey; parameters: Max Effect (Vero): unit not given here; details: African green monkey, Vero cells infected with T. cruzi; infected Vero host cells, 96 h; read-out: pCC50 (Vero) +/- StDev (converted)
Protocol: (§3) Briefly, these cells were maintained at 37°C and 5% CO2 in MEM supplemented with 10% FCS, sub-culturing every 2–3 days at a ratio of 1:5 after 5 min treatment with Trypsin-EDTA (Gibco).
as §2, with “After 96 h incubation at 37°C in presence of 5% CO2, the plates were fixed with 4% formaldehyde for 20 min at room temperature and stained with 5 μg/mL Hoechst 33342.” left out

[7] = system: Vero cells; assay: as above; format: cell-based, African green monkey; parameters: Max Effect (Vero): unit not given here
Protocol: as §3
as §2, with “After 96 h incubation at 37°C in presence of 5% CO2, the plates were fixed with 4% formaldehyde for 20 min at room temperature and stained with 5 μg/mL Hoechst 33342.” left out

[8] = Cytotoxicity assay on human HepG2 cells (resazurin); format: cell-based; details: human, HepG2 cells, 72 h, two independent experiments; read-out: pCC50 (HepG2) (converted)
[9] = system: HepG2 cells; assay: as above; format: cell-based
[10] = Replicate data generation, individual replicates

COc1ccc2oc(C(=O)Nc3nc(-c4ccccn4)cs3)c(C)c2c1 [Compound 4]
inhibition at 30 µM [1]: 59% | IC50 ([2]; IC50 (LAPTc)): 440 nM | Hill Slope ([2]; Initial hit confirmation, single replicate): 2.5 | Hill Slope [2, 10]: 2.8 and 2.1 and 2.3 | Maximum Effect [2, 10]: 87% and 81% | IC50 ([2]; pIC50 +/- StDev (LAPTc), average of four independent replicates): 437 nM | IC50 ([2]; pIC50, Initial hit confirmation, single replicate): 200 nM | IC50 ([2]; pIC50, Replicate data generation, individual replicates): 794 nM and 501 nM | Emax ([2]; read-out: Maximum Effect, Initial hit confirmation, single replicate): 96% | Emax ([2]; read-out: Maximum Effect, Replicate data generation, individual replicates): 83% | Hit Confirmation ([2]; whether primary screen hit confirmed in potency experiment): confirmed | Ki [3]: 270 nM | ligand efficiency (LE) ([3]; LE = -RT ln Ki / number of non-hydrogen atoms): 0.33 | experimental binding energy (ΔGb) ([3]; calculated from Ki, ΔG = -RTlnKi): -8.95 kcal/mol | mode of inhibition ([3]; with respect to substrate peptide LSTVIVR, Lineweaver-Burk): competitive inhibitor | IC50 [4]: > 100000 nM | EC50 ([5]; Trypanosoma cruzi, Vero, 96 h, four independent experiments, read-out: pEC50 (T. cruzi) +/- StDev (converted)): 676 nM | EC50 ([5]; Trypanosoma cruzi, Vero, 96 h, read-out: EC50 (T. cruzi amastigotes)): 700 nM | Emax ([5]; Trypanosoma cruzi, Vero, individual replicates, read-out: Max Effect (T. cruzi)): 95% | EC50 ([5]; Trypanosoma cruzi, Vero, individual replicates, read-out: pEC50 (T. cruzi) (converted)): 631 nM | Max Effect (T. cruzi) ([5]; individual replicates): 92 and 96 and 100 | pEC50 (T. cruzi) ([5]; individual replicates): 6.1 | CC50 at 96 h [6]: 2240 nM | Selectivity index (fold window Tc/Vero) [7]: 3.3 fold | Max Effect (Vero) ([7]; individual replicates): 85 and 83 and 79 | pEC50 (Vero) ([7]; individual replicates): 5.4 and 6.0 and 5.5 and 5.8 | CC50 at 72 h [8]: > 100000 nM | Selectivity window based on the HepG2 data ([9]; T. cruzi vs HepG2): > 166 fold | Max Effect (HepG2) ([9]; individual replicates): 38 and 49 | pEC50 (HepG2) ([9]; individual replicates): < 4.0 | toxicity against HepG2 cells (in words) ([9]; uninfected HepG2 cells): no toxicity was observed; also recorded: some toxicity was seen for compound 4 at 33 μM and 100 μM
